Laboratory results: US11168287B2, “Anti-adherent compositions and methods of inhibiting the adherence of microbes to a surface” (Kimberly-Clark Worldwide, Inc., priority 2016, dated 2021)

How the values were obtained:
[1] = test system: S. aureus ATCC 6538; assay: High Throughput Attachment Test Method (bacterial attachment to MBEC pegs), S. aureus; assay type: cell-based, Staphylococcus aureus; conditions: pegs coated with compound in 5% glycerin and QS water; Con. Wt. %: #1,4,5,6 = 5; #2,3 = 2; #7,8,9 = 100; 15 min bacterial challenge
Experimental: (§1) Anti-adherent compositions including anti-adherent agents as discussed herein were tested against bacteria using the High Throughput Attachment Test Method. The High Throughput Attachment Test Method is discussed in further detail below. The anti-adherent compositions including the anti-adherent agents were tested against Gram-positive Staphylococcus aureus, and Gram-negative Escherichia coll. The pH of the compositions for this testing between 3 to 10 pH, or about 4 to about 8 pH.
(§2) This test method specifies the operational parameters required to grow and or prevent the formation of bacterial attachment using a high throughput screening assay. The assay device consists of a plastic lid with ninety-six (96) pegs and a corresponding receiver plate with ninety-six (96) individual wells that have a maximum 200 μL working volume. Biofilm is established on the pegs under static batch conditions (i.e., no flow of nutrients into or out of an individual well).
(§3) 6.1.1 E. coli ATCC 11229 and S. aureus ATCC 6538 are the organisms used in this test.
(§4) 6.1.5 Incubate flask at 35±2° C. and 175±10 rpm for 16 to 18 hours (E. coli and S. aureus). Viable bacterial density should be 10^9 CFU/mL and should be checked by serial dilution and plating.
(§5) 6.1.6 Pipette 10 mL from the incubation flask of E. coli and S. aureus into a 50 mL conical tube and spin down at 5 minutes at 4,000×g. Then remove supernatant and Resuspend in 10 mL sterile PBS. Approximate cell density should be 10^7-10^9 CFU/mL. Vortex the sample for approximately 30 seconds to achieve a homogeneous distribution of cells.
(§6) 6.2.1.1.1 Using a positive displacement pipette aseptically add 200 μL of compounds and control to be tested to a sterile 96-well microplate according to the plate layout of Table 4 below.
(§7) 6.2.1.1.3 Place the MBEC plate lid, peg side down into the 96-well microplate containing the test compound solutions.
(§8) 6.2.1.1.4 Allow the plate to sit at room temperature (25±3° C.) for 2 hours.
(§9) 6.2.1.1.5 Remove the MBEC plate lid and allow the lid to dry at room temperature (25±3° C.) overnight in a laminar flow hood. […]

[2] = test system: Phi X 174; assay: High Throughput Test to Quantify the Attachment of Phage to a Surface, DNA virus Phi X 174; set-up: species or system Phi X 174 bacteriophage; conditions: for Phi X 174 Percent Reduct. (%) / Phi X 174 Log. R (PFU/mL) compared to growth controls: pegs coated with compound in 5% glycerin and QS water, Con. Wt. %: #1,4,5,6 = 5, #2,3 = 2, #7,8,9 = 100, 1 hour phage contact; for Phi X 174 Log. R (PFU/mL) compared to growth controls: positive = inhibits attachment; for Effect against DNA viruses (Phi X 174), in words: positive logarithmic reduction at statistically significant level = anti-adherent
Experimental: (§10) The anti-adherent compositions that inhibit the attachment of RNA and/or DNA viruses to a surface including compounds serving as anti-adherent agents against RNA and DNA viruses were tested against RNA and DNA viruses via the High Throughput Test to Quantify the Attachment of Phage to a Surface, as discussed in detail below. Tables 2 and 3 below show the variety of compounds that were tested as agents in a composition, as well as the results that related to the percent reduction in viruses and the Logarithmic Reduction compared to growth controls. As will be discussed in further detail below in the discussion regarding the High Throughput Test to Quantify the Attachment of Phage to a Surface, a positive logarithmic reduction in viruses equates to anti-adherent properties (e.g., inhibits attachment), and a negative logarithmic reduction in viruses equates to adherent properties (e.g., increases attachment).
The DNA virus that the compositions were tested against for attachment behaviors was Phi X 174. Bacteriophage are commonly utilized as surrogates of mammalian viruses in both medical and virology applications. Phi X 174 is commonly utilized as a viral surrogate because of its size, morphology, environmental stability, and non-human infectivity, and the ability for use in high throughput assays. Phi X174 has been previously been used to study barrier efficacy, making it an ideal surrogate to study attachment to a surface (See, Haman and Nelson, Am J Infect Control, 1993, 21:289-96, O'Connell, et al, Clin Microb Infect, 2004, 10:322-6, ASTM F1671/F1671M-13, Standard Test Method for Resistance of Materials Used in Protective Clothing to Penetration by Blood-Borne Pathogens Using Phi X174 Bacteriophage Penetration as a Test System). Thus, it is well accepted by those of ordinary skill in the art that Phi X 174 serves as a surrogate for other DNA viruses, and the compositions including the adherent agents noted above would act in a substantially similar behavior to other DNA viruses as they did against Phi X 174.
(§11) 1.5 Phage (MS2 and PhiX 174) Enumeration: • 1.5.1 Phage is prepared for use from the stock by diluting 1:1 in BPB. • 1.5.2 Spot Plate Method: • 1.5.2.1 A cell dilution of ˜10^6 CFU/mL of E. coli (E. coli K12 is used for MS2 phage and E. coli C is used for PhiX 174) is prepared from the prepared washed broth culture by diluting in sterile BPB. • 1.5.2.2 An inoculum check is performed on the bacterial dilution in triplicate. • 1.5.2.3 In a 96 well plate, columns 1-12 are filled with 180 μL of the 10^6 CFU/ml E. coli suspension in BPB • 1.5.2.4 20 μL of the samples to be diluted is added in column 1. • 1.5.2.5 10-fold (10×Dilution) in BPB is performed from 10^1-10^12 by moving 20 μL from column 1 to column 2 and mixing. This is repeated, moving down the columns until column 12. • 1.5.2.6 20 μL (or 10 if agar permits) is spot plated on a large labelled OSA plate (spot plate every second column to avoid cross merging of spot plated phages. • 1.5.2.7 Plates are inverted & incubated for 24 h at 37° C. • 1.5.2.8 After 24 h the number of PFU is counted.
(§12) • 1.6.1 Preparation of compounds and coating compounds onto MBEC plate lid • 1.6.2 Using a positive displacement pipette aseptically add 200 μL of compounds to be tested to a sterile 96-well microplate according to the plate layout described below. • 1.6.3 Add 200 μL of each code to the appropriate well for sterility controls. • 1.6.4 Place the MBEC plate lid, peg side down into the 96-well microplate containing the test compound solutions. • 1.6.5 Allow the plate to sit at room temperature (25±3° C.) for 2 hrs. • 1.6.6 Remove the MBEC plate lid and allow the lid to dry at room temperature (25±3° C.) overnight in a laminar flow hood by spacing the MBEC plate lid from the MBEC plate trough with two 10 μL disposable loops. […]

[3] = test system: MS2; assay: High Throughput Test to Quantify the Attachment of Phage to a Surface, RNA virus MS2; conditions: for MS2 Percent Reduct. (%) / MS2 Log R (PFU/mL) compared to growth controls: pegs coated with compound in 5% glycerin and QS water, Con. Wt. %: #1,4,5,6 = 5, #2,3 = 2, #7,8,9 = 100, 1 hour phage contact; for MS2 Log R (PFU/mL) compared to growth controls: positive = inhibits attachment; for Effect against RNA viruses (MS2), in words: positive logarithmic reduction at statistically significant level = anti-adherent
Experimental: as §10
The RNA virus that the compositions were tested against for attachment behaviors was MS2. Bacteriophage are commonly utilized as surrogates of mammalian viruses in both medical and virology applications. MS2 phage is commonly utilized as a viral surrogate because of its size, morphology, environmental stability, non-human infectivity, and the ability for use in high throughput assays. Additionally, MS2 is commonly used as a surrogate to study the spread of human Norovirus (See, Tung-Thompson, et al, PLoS One, 2015, 10(8): e0134277, Dawson D J, et al, J App Micro, 2005, 98: 203-209, Jones, et al, J Hosp Infect, 1991, 17:279-85). The use of MS2 phage in hand sanitizer studies makes it an ideal surrogate to study the interaction of personal care products and viral attachment. It is believed that compositions including the adherent agents noted above would act in a substantially similar behavior to other RNA viruses as they did against MS2.
as §11, §12

[4] = test system: E. coli ATCC 11229; assay: High Throughput Attachment Test Method (bacterial attachment to MBEC pegs), E. coli; assay type: cell-based, Escherichia coli; conditions: pegs coated with compound in 5% glycerin and QS water; Con. Wt. %: #1,4,5,6 = 5; #2,3 = 2; #7,8,9 = 100; 15 min bacterial challenge
Experimental: as §1, §2, §3, §4, §5, §6, §7, §8, §9

Compound | Ratio of S. aureus growth on treated pegs to untreated pegs (%) [1] | Phi X 174 Percent Reduct. (%) [2] | Phi X 174 Log. R (PFU/mL) compared to growth controls [2] | Effect against DNA viruses (Phi X 174), in words [2] | MS2 Percent Reduct. (%) [3] | MS2 Log R (PFU/mL) compared to growth controls [3] | Effect against RNA viruses (MS2), in words [3] | Ratio of E. coli growth on treated pegs to untreated pegs (%) [4]
CCCCCCCCCCCCCCCCCC(=O)OCC(CC)CCCC (stereo not shown) [Compound 7, Ethylhexyl Stearate] | 68.6% | 98.58% | 1.85 PFU/mL | anti-adherent | 87.46% | 0.90 PFU/mL | anti-adherent | 48.4%
CCCCC(CC)COC(=O)c1ccccc1O (stereo not shown) [Compound 8, Ethylhexyl Salicylate] | 75.4% | 91.45% | 1.07 PFU/mL |  | 85.40% | 0.84 PFU/mL |  | 111.1%
CCCCC(CC)COC(=O)C(C#N)=C(c1ccccc1)c1ccccc1 (stereo not shown) [Compound 9, Octocrylene] | 81.9% | 93.44% | 1.18 PFU/mL | anti-adherent | −30.27% | −0.11 PFU/mL | neutral | 114.1%
